{"source": "patent US11524960B2", "about": "“Heterobicyclic inhibitors of MAT2A and methods of use for treating cancer” (AGIOS PHARMACEUTICALS, INC., priority 2018, dated 2022)", "data": [{"target": "T1, MAT2A homodimer (Homo sapiens, UniProt P31153)", "T1 construct": "inferred from Ni sepharose purification and imidazole elution; made in house; host or cells: Sf9 insect cells, recombinant baculovirus (Bac to Bac, pFASTBAC1)", "T1 sequence (P31153 whole entry)": "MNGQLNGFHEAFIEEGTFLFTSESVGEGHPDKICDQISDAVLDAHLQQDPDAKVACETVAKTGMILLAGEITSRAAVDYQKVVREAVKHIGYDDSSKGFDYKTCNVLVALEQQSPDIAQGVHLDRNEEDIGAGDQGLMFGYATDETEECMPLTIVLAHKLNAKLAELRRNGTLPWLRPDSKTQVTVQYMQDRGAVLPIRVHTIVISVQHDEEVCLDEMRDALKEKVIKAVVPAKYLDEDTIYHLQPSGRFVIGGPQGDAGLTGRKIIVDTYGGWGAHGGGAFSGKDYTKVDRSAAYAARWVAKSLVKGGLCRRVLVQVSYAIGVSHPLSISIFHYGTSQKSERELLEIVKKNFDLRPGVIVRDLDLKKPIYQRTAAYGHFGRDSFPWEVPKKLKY", "experiment": "Biochemical assay: inhibition of MAT2A (phosphate release, PiColorLock Gold)", "conditions": "MAT2A IC50 score; read-out: Enzyme Inhibition (Example 275)", "method": "Mat2A protein was expressed by recombinant baculovirus in SF9 infected cells using the Bac to Bac system cloned into the pFASTBAC1 vector (Invitrogen, Carlsbad, Calif.). Recombinant MAT2A was isolated from the cell lysate of 150 g of infected cells using HP Ni sepharose column chromatography. Recombinant MAT2A homodimer was eluted with 250 and 500 mM imidazole, and fractions containing MAT2A were identified by sodium dodecyl sulfate polyacrylamide gel electrophoresis and pooled.\nFor determination of the inhibitory potency of compounds against the MAT2A homodimer, protein was diluted to […] in assay buffer (50 mM Tris, pH 8.0, 50 mM KCl, 15 mM MgCl2, 0.3 mM EDTA, 0.005% [w/v] bovine serum albumin [BSA]). Test compound was prepared in 100% dimethyl sulfoxide (DMSO) at 50× the desired final concentration. […] of compound dilution was added to 40 μL of enzyme dilution and the mixture was allowed to equilibrate for 60 minutes at 25° C. The enzymatic assay was initiated by the addition of 10 μL of substrate mix (500 μM ATP, pH 7.0, 400 μM L-methionine in 1× assay buffer), and the mixture was incubated for a further 60 minutes at 25° C. The reaction was halted and the liberated phosphate released by the enzyme in stoichiometric amounts by the production of S-adenosyl methionine (SAM) was measured using the PiColorLock Gold kit (Innova Biosciences, UK). Absolute product amounts were determined by comparison to a standard curve of potassium phosphate buffer, pH 8.0.", "units": {"IC50": "nM"}, "values": [{"compound": "O=c1c(-c2ccc(OCC(F)F)cc2)c2nc(NCC(F)(F)F)ncc2cn1-c1ccc2ncccc2c1", "note": "[Example 201, 8-(4-(2,2-difluoroethoxy)phenyl)-6-(quinolin-6-yl)-2-((2,2,2-trifluoroethyl)amino)pyrido[4,3-d]pyrimidin-7(6H)-one]", "IC50": "100 to 1000"}, {"compound": "COc1ccc(-n2cc3cnc(NCC(F)(F)F)nc3c(-c3ccc(N4CCC4)cc3)c2=O)cc1", "note": "[Example 204, 8-(4-(azetidin-1-yl)phenyl)-6-(4-methoxyphenyl)-2-((2,2,2-trifluoroethyl)amino)pyrido[4,3-d]pyrimidin-7(6H)-one]", "IC50": "100 to 1000"}, {"compound": "CCNc1ncc2cn(-c3ccc4nn(C)cc4c3)c(=O)c(-c3ccc(OC(F)(F)F)cc3)c2n1", "note": "[Example 170, 2-(ethylamino)-6-(2-methyl-2H-indazol-5-yl)-8-(4-(trifluoromethoxy)phenyl)pyrido[4,3-d]pyrimidin-7(6H)-one]", "IC50": "< 100"}, {"compound": "O=C1N(c2cnoc2)Cc2cnc(NCC3CC3)nc2C12CCN(Cc1ccccc1F)C2", "note": "(centres unmarked) [Example 121, 2-((cyclopropylmethyl)amino)-1′-(2-fluorobenzyl)-6-(isoxazol-4-yl)-5,6-dihydro-7H-spiro[pyrido[4,3-d]pyrimidine-8,3′-pyrrolidin]-7-one]", "IC50": "100 to 1000"}, {"compound": "COc1ccc(N2Cc3cnc(NCC4CC4)nc3C3(CCN(Cc4cn[nH]c4)C3)C2=O)cc1", "note": "(centres unmarked) [Example 102, 1′-((1H-pyrazol-4-yl)methyl)-2-((cyclopropylmethyl)amino)-6-(4-methoxyphenyl)-5H-spiro[pyrido[4,3-d]pyrimidine-8,3′-pyrrolidin]-7(6H)-one]", "IC50": "1000 to 10000"}, {"compound": "O=c1c(-c2ccc(Cl)cc2)c2nc(NCC(F)(F)F)ncc2cn1-c1ccn2nccc2c1", "note": "[Example 130, 8-(4-chlorophenyl)-6-(pyrazolo[1,5-a]pyridin-5-yl)-2-(2,2,2-trifluoroethylamino)pyrido[4,3-d]pyrimidin-7(6H)-one]", "IC50": "< 100"}, {"compound": "O=c1c(-c2ccc(C3CC3)cc2)c2nc(NCC(F)(F)F)ncc2cn1-c1ccc2nc(C(F)(F)F)ccc2c1", "note": "[Example 163, 8-(4-cyclopropylphenyl)-2-((2,2,2-trifluoroethyl)amino)-6-(2-(trifluoromethyl)quinolin-6-yl)pyrido[4,3-d]pyrimidin-7(6H)-one]", "IC50": "1000 to 10000"}, {"compound": "COc1ccc(N2Cc3cnc(NCC4CC4)nc3C3(CCN(C4CCCCC4)C3)C2=O)cc1", "note": "(centres unmarked) [Example 104, 1′-cyclohexyl-2-((cyclopropylmethyl)amino)-6-(4-methoxyphenyl)-5H-spiro[pyrido[4,3-d]pyrimidine-8,3′-pyrrolidin]-7(6H)-one]", "IC50": "1000 to 10000"}, {"compound": "O=c1c(-c2ccc(OC(F)F)cc2)c2nc(OC3CC3)ncc2cn1-c1ccc2ncccc2c1", "note": "[Example 273, 2-cyclopropoxy-8-(4-(difluoromethoxy)phenyl)-6-(quinolin-6-yl)pyrido[4,3-d]pyrimidin-7(6H)-one]", "IC50": "< 100"}, {"compound": "O=c1c(-c2ccc(OC(F)F)cc2)c2nc(N3CCC3)ncc2cn1-c1ccc2ncccc2c1", "note": "[Example 185, 2-(azetidin-1-yl)-8-(4-(difluoromethoxy)phenyl)-6-(quinolin-6-yl)pyrido[4,3-d]pyrimidin-7(6)-one]", "IC50": "1000 to 10000"}, {"compound": "COc1ccc(-n2cc3cnc(NCC(F)(F)F)nc3c(-c3ccc(OC(F)(F)F)cc3)c2=O)cc1", "note": "[Example 196, 6-(4-methoxyphenyl)-2-((2,2,2-trifluoroethyl)amino)-8-(4-(trifluoromethoxy)phenyl)pyrido[4,3-d]pyrimidin-7(6H)-one]", "IC50": "< 100"}, {"compound": "COc1ccc(-n2cc3cnc(NCCC(F)(F)F)nc3c(-c3ccc(Br)cc3)c2=O)cc1", "note": "[Example 186, 8-(4-bromophenyl)-6-(4-methoxyphenyl)-2-((3,3,3-trifluoropropyl)amino)pyrido[4,3-d]pyrimidin-7(6)-one]", "IC50": "100 to 1000"}, {"compound": "O=c1c(-c2ccc(Cl)cc2)c2nc(NCC(F)(F)F)ncc2cn1-c1ccc2nscc2c1", "note": "[Example 125, 6-(benzo[c]isothiazol-5-yl)-8-(4-chlorophenyl)-2-((2,2,2-trifluoroethyl)amino)pyrido[4,3-d]pyrimidin-7(6H)-one]", "IC50": "< 100"}, {"compound": "O=c1c(-c2ccc(OC(F)F)cc2)c2nc(NCC(F)(F)F)ncc2cn1-c1ccc2nn(C3CC3)cc2c1", "note": "[Example 154, 6-(2-cyclopropyl-2H-indazol-5-yl)-8-(4-(difluoromethoxy)phenyl)-2-((2,2,2-trifluoroethyl)amino)pyrido[4,3-d]pyrimidin-7(6H)-one]", "IC50": "< 100"}, {"compound": "O=C1N(Cc2ccn[nH]2)Cc2cnc(NCC3CC3)nc2C12CCN(Cc1ccccc1F)C2", "note": "(centres unmarked) [Example 120, 6-((1H-pyrazol-5-yl)methyl)-2-((cyclopropylmethyl)amino)-1′-(2-fluorobenzyl)-5,6-dihydro-7H-spiro[pyrido[4,3-d]pyrimidine-8,3′-pyrrolidin]-7-one]", "IC50": "1000 to 10000"}, {"compound": "O=c1c(-c2ccc(Cl)cc2)c2nc(NCC(F)(F)F)ncc2cn1-c1ccc2n[nH]cc2c1", "note": "[Example 142, 8-(4-chlorophenyl)-6-(2H-indazol-5-yl)-2-((2,2,2-trifluoroethyl)amino)pyrido[4,3-d]pyrimidin-7(6H)-one]", "IC50": "100 to 1000"}, {"compound": "O=C1N(c2cnoc2)Cc2cnc(NCC3CC3)nc2C12CCN(Cc1ccon1)C2", "note": "(centres unmarked) [Example 106, 2-((cyclopropylmethyl)amino)-1′-(isoxazol-3-ylmethyl)-6-(isoxazol-4-yl)-5H-spiro[pyrido[4,3-d]pyrimidine-8,3′-pyrrolidin]-7(6H)-one]", "IC50": "1000 to 10000"}, {"compound": "O=C1N(c2cn[nH]c2)Cc2cnc(NCC3CC3)nc2C12CCN(Cc1ccccc1F)C2", "note": "(centres unmarked) [Example 122, 2-((cyclopropylmethyl)amino)-1′-(2-fluorobenzyl)-6-(1H-pyrazol-4-yl)-5,6-dihydro-7H-spiro[pyrido[4,3-d]pyrimidine-8,3′-pyrrolidin]-7-one]", "IC50": "100 to 1000"}, {"compound": "COc1ccc(-c2c(=O)n(-c3cnoc3)cc3cnc(NCC(F)(F)F)nc23)cc1", "note": "[Example 207, 6-(isoxazol-4-yl)-8-(4-methoxyphenyl)-2-((2,2,2-trifluoroethyl)amino)pyrido[4,3-d]pyrimidin-7(6H)-one]", "IC50": "100 to 1000"}, {"compound": "COc1ccc(-n2cc3cnc(N(C)CC(F)(F)F)nc3c(-c3ccc(Br)cc3)c2=O)cc1", "note": "[Example 187, 8-(4-bromophenyl)-6-(4-methoxyphenyl)-2-(methyl(2,2,2-trifluoroethyl)amino)pyrido[4,3-d]pyrimidin-7(6H)-one]", "IC50": "1000 to 10000"}, {"compound": "COc1ccc(N2Cc3cnc(NCC4CC4)nc3C3(CCN(Cc4cc[nH]n4)C3)C2=O)cc1", "note": "(centres unmarked) [Example 101, 1′-((1H-pyrazol-3-yl)methyl)-2-((cyclopropylmethyl)amino)-6-(4-methoxyphenyl)-5H-spiro[pyrido[4,3-d]pyrimidine-8,3′-pyrrolidin]-7(6H)-one]", "IC50": "100 to 1000"}, {"compound": "Cc1nc2cc(-n3cc4cnc(NCC(F)(F)F)nc4c(-c4ccc(Cl)cc4)c3=O)ccc2o1", "note": "[Example 138, 8-(4-chlorophenyl)-6-(2-methylbenzo[d]oxazol-5-yl)-2-((2,2,2-trifluoroethyl)amino)pyrido[4,3-d]pyrimidin-7(6H)-one]", "IC50": "100 to 1000"}, {"compound": "O=c1c(-c2ccc(Cl)cc2)c2nc(NCC(F)(F)F)ncc2cn1-c1ccc2nnccc2c1", "note": "[Example 131, 8-(4-chlorophenyl)-6-(cinnolin-6-yl)-2-(2,2,2-trifluoroethylamino)pyrido[4,3-d]pyrimidin-7(6)-one]", "IC50": "< 100"}, {"compound": "CC(C)n1cnc2ccc(-n3cc4cnc(NCC(F)(F)F)nc4c(-c4ccc(Cl)cc4)c3=O)cc21", "note": "[Example 128, 8-(4-chlorophenyl)-6-(1-isopropyl-1H-benzo[d]imidazol-6-yl)-2-(2,2,2-trifluoroethylamino)pyrido[4,3-d]pyrimidin-7(6H)-one]", "IC50": "< 100"}, {"compound": "CCNc1ncc2c(n1)C1(CCN(Cc3cc[nH]n3)C1)C(=O)N(c1ccc(OC)cc1)C2", "note": "(centres unmarked) [Example 111, 1′-((1H-pyrazol-3-yl)methyl)-2-(ethylamino)-6-(4-methoxyphenyl)-5H-spiro[pyrido[4,3-d]pyrimidine-8,3′-pyrrolidin]-7(6H)-one]", "IC50": "1000 to 10000"}, {"compound": "O=c1c(-c2ccc(C3CC3)cc2)c2nc(NCC(F)(F)F)ncc2cn1-c1ccc2c(c1)CCO2", "note": "[Example 164, 8-(4-cyclopropylphenyl)-6-(2,3-dihydrobenzofuran-5-yl)-2-((2,2,2-trifluoroethyl)amino)pyrido[4,3-d]pyrimidin-7(6H)-one]", "IC50": "< 100"}, {"compound": "Cn1cnc2ccc(-n3cc4cnc(OCC(F)(F)F)nc4c(-c4ccc(OC(F)F)cc4)c3=O)cc21", "note": "[Example 263, 8-(4-(difluoromethoxy)phenyl)-6-(1-methyl-1H-benzo[d]imidazol-6-yl)-2-(2,2,2-trifluoroethoxy)pyrido[4,3-d]pyrimidin-7(6H)-one]", "IC50": "< 100"}, {"compound": "Cc1ccc2cc(-n3cc4cnc(NCC(F)(F)F)nc4c(-c4ccc(C5CC5)cc4)c3=O)ccc2n1", "note": "[Example 162, 8-(4-cyclopropylphenyl)-6-(2-methylquinolin-6-yl)-2-((2,2,2-trifluoroethyl)amino)pyrido[4,3-d]pyrimidin-7(6H)-one]", "IC50": "< 100"}, {"compound": "COc1ccc(N2Cc3cnc(NCC(F)(F)F)nc3C3(CCN(c4nnc(N)s4)CC3)C2=O)cc1", "note": "[Example 117, 1-(5-amino-1,3,4-thiadiazol-2-yl)-6′-(4-methoxyphenyl)-2′-((2,2,2-trifluoroethyl)amino)-5′H-spiro[piperidine-4,8′-pyrido[4,3-d]pyrimidin]-7′(6′H)-one]", "IC50": "1000 to 10000"}]}]}
